Data reported in patent US20240336572A1, “SUBSTITUTED INDAZOLE PROPIONIC ACID DERIVATIVE COMPOUNDS AND USES THEREOF” (Pfizer Inc., priority 2023, published 2024).

Assays:
AMPK 111 = target: T1, AMPK 111 (Homo sapiens, UniProt Q13131+Q9Y478); assay: Biochemical profiling of AMPK activators by AMPK111 (HTRF/TR-FRET assay, SAMS peptide, PP2A dephosphorylation protection); details: for EC50: phosphorylated AMPK 111 (α1β1δ1 as printed), 11 point dilution, duplicate, 4-parameter fit; for Emax: phosphorylated AMPK 111, maximal activation
T1 construct: open reading frames encoding the full-length α1, β1 and δ1 subunits of human AMPK; made in house; host or cells: E. coli BL21-CodonPlus (DE3)-RIPL, pET-14b
Method: (§1) The biochemical EC50 (half-maximal concentration required for full activation) of compounds for the activation of AMPK was evaluated by HTRF assay using LANCE Ultra ULight-Acetyl-CoA Carboxylase (SAMS) peptide (commercially available, Perkin Elmer catalog TRF0133-M).
Following a fifteen-minute room temperature incubation, 5 μL of 30 nM protein phosphatase PP2A (isolation detailed above) diluted in the assay buffer was added to the plate, to dephosphorylate pThr172 of AMPK. […] The reaction was terminated after 60 minutes incubation at room temperature, by the addition of 5 μL of stop and detection cocktail, which consisted of 1× Perkin Elmer Lance buffer (Perkin Elmer catalog number CR97-100), 40 mM EDTA (Thermo Fisher catalog number BP2482-100), and 2 nM Eu-anti-Acetyl CoA Carboxylase [pSer70] antibody (Perkin Elmer, TRF0208-M).

AMPK 221 = target: T2, AMPK 221 (Homo sapiens, UniProt O43741+P54646); assay: Biochemical profiling of AMPK activators by AMPK221 (HTRF/TR-FRET assay, SAMS peptide, PP2A dephosphorylation protection); details: for EC50: phosphorylated AMPK 221 (α2β2δ1), 11 point dilution, duplicate, 4-parameter fit; for Emax: phosphorylated AMPK 221, maximal activation
T2 construct: open reading frames encoding the full-length α2, β2 and δ1 subunits of human AMPK; made in house; host or cells: E. coli BL21-CodonPlus (DE3)-RIPL, pET-14b
Method: as §1
The reaction was terminated after 60 minutes incubation at room temperature by the addition of 5 μL of stop and detection cocktail, which consisted of 1× Perkin Elmer Lance buffer (Perkin Elmer catalog number CR97-100), 40 mM EDTA (Thermo Fisher catalog number BP2482-100), and 2 nM Eu-anti-Acetyl CoA Carboxylase [pSer70] antibody (Perkin Elmer, TRF0208-M). Plates were spun at 1000 RPM, 10 seconds.

T2 sequence (P54646 whole entry): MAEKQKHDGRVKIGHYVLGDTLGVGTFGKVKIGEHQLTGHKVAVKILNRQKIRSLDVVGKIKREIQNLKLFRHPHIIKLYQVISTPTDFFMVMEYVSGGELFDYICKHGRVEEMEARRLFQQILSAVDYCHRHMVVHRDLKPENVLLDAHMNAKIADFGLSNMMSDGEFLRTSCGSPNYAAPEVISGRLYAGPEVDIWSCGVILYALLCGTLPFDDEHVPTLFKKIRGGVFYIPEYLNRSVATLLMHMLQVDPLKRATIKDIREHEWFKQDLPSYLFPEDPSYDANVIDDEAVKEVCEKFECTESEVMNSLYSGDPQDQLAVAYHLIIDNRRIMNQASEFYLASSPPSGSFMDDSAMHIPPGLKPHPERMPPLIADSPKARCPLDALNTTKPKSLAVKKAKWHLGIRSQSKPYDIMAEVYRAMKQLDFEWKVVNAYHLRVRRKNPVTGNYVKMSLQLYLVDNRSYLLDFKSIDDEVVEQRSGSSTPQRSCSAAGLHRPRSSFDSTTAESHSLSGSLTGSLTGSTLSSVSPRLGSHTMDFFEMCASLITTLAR
T2 sequence (O43741 whole entry): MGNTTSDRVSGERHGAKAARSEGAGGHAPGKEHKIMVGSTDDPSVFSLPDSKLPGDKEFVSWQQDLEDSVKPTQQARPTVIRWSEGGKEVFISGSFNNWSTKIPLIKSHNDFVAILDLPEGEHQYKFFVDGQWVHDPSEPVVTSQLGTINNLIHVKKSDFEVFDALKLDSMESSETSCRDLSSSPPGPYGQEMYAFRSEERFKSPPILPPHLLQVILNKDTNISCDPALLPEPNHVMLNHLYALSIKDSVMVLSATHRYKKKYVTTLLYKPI
T2 sequence (P54619 whole entry partner): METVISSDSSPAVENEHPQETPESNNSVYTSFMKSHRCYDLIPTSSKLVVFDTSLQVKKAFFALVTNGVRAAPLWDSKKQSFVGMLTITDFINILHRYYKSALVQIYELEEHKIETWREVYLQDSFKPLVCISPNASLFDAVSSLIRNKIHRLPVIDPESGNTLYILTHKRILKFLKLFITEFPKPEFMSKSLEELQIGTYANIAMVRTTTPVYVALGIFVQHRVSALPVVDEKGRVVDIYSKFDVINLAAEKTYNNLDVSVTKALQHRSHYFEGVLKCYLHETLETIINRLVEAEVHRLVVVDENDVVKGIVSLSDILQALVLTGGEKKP
T1 sequence (Q13131 whole entry): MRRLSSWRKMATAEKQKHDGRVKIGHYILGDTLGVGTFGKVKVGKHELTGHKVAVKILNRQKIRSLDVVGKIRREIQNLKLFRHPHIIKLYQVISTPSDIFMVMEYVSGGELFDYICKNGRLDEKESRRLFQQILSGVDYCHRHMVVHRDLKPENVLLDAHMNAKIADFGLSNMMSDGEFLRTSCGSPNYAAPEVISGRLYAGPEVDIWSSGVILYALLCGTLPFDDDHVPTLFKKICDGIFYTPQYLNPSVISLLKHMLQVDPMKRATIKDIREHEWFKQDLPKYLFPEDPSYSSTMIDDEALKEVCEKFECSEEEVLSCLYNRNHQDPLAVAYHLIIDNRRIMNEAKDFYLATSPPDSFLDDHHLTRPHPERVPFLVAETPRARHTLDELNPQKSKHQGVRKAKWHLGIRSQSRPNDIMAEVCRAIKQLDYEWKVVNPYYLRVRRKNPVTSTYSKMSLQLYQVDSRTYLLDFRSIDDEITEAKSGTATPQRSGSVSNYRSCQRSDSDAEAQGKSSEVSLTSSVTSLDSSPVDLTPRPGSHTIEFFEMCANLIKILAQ
T1 sequence (Q9Y478 whole entry): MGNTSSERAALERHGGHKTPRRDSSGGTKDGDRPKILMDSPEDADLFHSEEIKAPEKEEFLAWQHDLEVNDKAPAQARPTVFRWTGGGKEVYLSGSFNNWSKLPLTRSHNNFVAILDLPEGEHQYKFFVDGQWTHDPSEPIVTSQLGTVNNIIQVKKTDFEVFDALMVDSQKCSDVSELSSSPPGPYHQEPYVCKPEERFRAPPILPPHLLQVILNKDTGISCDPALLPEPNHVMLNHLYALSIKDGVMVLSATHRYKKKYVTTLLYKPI
T1 sequence (P54619 whole entry partner): as the sequence (P54619 whole entry partner) above

| SMILES | EC50 (AMPK 111) [nM] | Emax (AMPK 111) [%] | EC50 (AMPK 221) [nM] | Emax (AMPK 221) [%] |
| --- | --- | --- | --- | --- |
| O=C(O)CCc1n[nH]c2cc(Cl)c(-c3ccc(-c4ccc5c(c4)CS(=O)(=O)C5)cc3)cc12 [Example 54, 3-(6-chloro-5-(4-(2,2-dioxido-1,3-dihydrobenzo[c]thiophen-5-yl)phenyl)-1H-indazol-3-yl)propanoic acid] | 217 | 61 | 1010 | 64 |
| CN(C)C(=O)c1ccc(-c2ccc(-c3cc4c(CCC(=O)O)n[nH]c4cc3Cl)cc2)cc1 [Example 29, 3-(6-chloro-5-(4′-(dimethylcarbamoyl)-[1,1′-biphenyl]-4-yl)-1H-indazol-3-yl)propanoic acid] | 46 | 72 | 162 | 63 |
| O=C(O)CCc1n[nH]c2cc(Cl)c(-c3ccc(-c4ccc5c(c4O)OCC5)cc3)cc12 [Example 68, 3-(6-chloro-5-(4-(7-hydroxy-2,3-dihydrobenzofuran-6-yl)phenyl)-1H-indazol-3-yl)propanoic acid] | 29 | 71 | 19 | 69 |
| Cc1cccc(O)c1-c1ccc(-c2cc3c(CCCC(=O)O)n[nH]c3cc2Cl)cc1 [Example 75, 4-(6-chloro-5-(2′-hydroxy-6′-methyl-[1,1′-biphenyl]-4-yl)-1H-indazol-3-yl)butanoic acid] | 74 | 75 | 229 | 63 |
| Cc1ccccc1-c1ccc(-c2cc3c(CCC(=O)O)n[nH]c3cc2Cl)cc1 [Example 48, 3-(6-chloro-5-(2′-methyl-[1,1′-biphenyl]-4-yl)-1H-indazol-3-yl)propanoic acid] | 365 | 43 | 367 | 9 |
| COc1cccc(-c2ccc(-c3cc4c(CCC(=O)O)n[nH]c4cc3Cl)cc2)c1O [Example 2, 3-(6-Chloro-5-(2′-hydroxy-3′-methoxy-[1,1′-biphenyl]-4-yl)-1H-indazol-3-yl)propanoic acid] | 29 | 80 | 34 | 66 |
| Cc1cccc(O)c1-c1ccc(-c2cc3c(CCC(=O)O)n[nH]c3cc2Cl)cc1 [Example 15, 3-(6-chloro-5-(2′-hydroxy-6′-methyl-[1,1′-biphenyl]-4-yl)-1H-indazol-3-yl)propanoic acid] | 35 | 75 | 76 | 52 |
| Cc1ccc(F)c(O)c1-c1ccc(-c2cc3c(CCC(=O)O)n[nH]c3cc2Cl)cc1 [Example 20, 3-(6-chloro-5-(3′-fluoro-2′-hydroxy-6′-methyl-[1,1′-biphenyl]-4-yl)-1H-indazol-3-yl)propanoic acid] | 16 | 82 | 97 | 61 |
| O=C(O)CCc1c[nH]c2cc(Cl)c(-c3ccc(-c4ccccc4O)cc3)cc12 [Example 4, 3-(6-Chloro-5-(2′-hydroxy-[1,1′-biphenyl]-4-yl)-1H-indol-3-yl)propanoic acid] | 62 | 74 | 665 | 34 |
| NC(=O)Cc1ccc(-c2ccc(-c3cc4c(CCC(=O)O)n[nH]c4cc3Cl)cc2)cc1 [Example 30, 3-(5-(4′-(2-amino-2-oxoethyl)-[1,1′-biphenyl]-4-yl)-6-chloro-1H-indazol-3-yl)propanoic acid] | 36 | 80 | 173 | 65 |
| N#Cc1cc2[nH]nc(CCC(=O)O)c2cc1-c1ccc(-c2ccccc2O)cc1 [Example 35, 3-(6-cyano-5-(2′-hydroxy-[1,1′-biphenyl]-4-yl)-1H-indazol-3-yl)propanoic acid] | 137 | 67 | 198 | 47 |
| CS(=O)(=O)c1ccc(-c2ccc(-c3cc4c(CCC(=O)O)n[nH]c4cc3Cl)cc2)cc1 [Example 44, 3-(6-chloro-5-(4′-(methylsulfonyl)-[1,1′-biphenyl]-4-yl)-1H-indazol-3-yl)propanoic acid] | 85 | 79 | 204 | 52 |
| O=C(O)CCc1n[nH]c2cc(Cl)c(-c3ccc(-c4ccc(F)cc4O)cc3)cc12 [Example 47, 3-(6-chloro-5-(4′-fluoro-2′-hydroxy-[1,1′-biphenyl]-4-yl)-1H-indazol-3-yl)propanoic acid] | 113 | 83 | 282 | 59 |
| O=C(O)CCc1n[nH]c2cc(Cl)c(-c3ccc(-c4cnsc4)cc3)cc12 [Example 65, 3-(6-chloro-5-(4-(isothiazol-4-yl)phenyl)-1H-indazol-3-yl)propanoic acid] | 263 | 79 | 795 | 58 |
| O=C(O)CCc1n[nH]c2cc(Cl)c(-c3ccc(-c4ccc(F)c(F)c4O)cc3)cc12 [Example 71, 3-(6-chloro-5-(3′,4′-difluoro-2′-hydroxy-[1,1′-biphenyl]-4-yl)-1H-indazol-3-yl)propanoic acid] | 279 | 73 | 994 | 60 |
| COc1c(F)ccc(-c2ccc(-c3cc4c(CCC(=O)O)n[nH]c4cc3Cl)cc2)c1O [Example 16, 3-(6-chloro-5-(4′-fluoro-2′-hydroxy-3′-methoxy-[1,1′-biphenyl]-4-yl)-1H-indazol-3-yl)propanoic acid] | 37 | 86 | 81 | 64 |
| Cc1cscc1-c1ccc(-c2cc3c(CCC(=O)O)n[nH]c3cc2Cl)cc1 [Example 60, 3-(6-chloro-5-(4-(4-methylthiophen-3-yl)phenyl)-1H-indazol-3-yl)propanoic acid] | 241 | 53 | 532 | 21 |
| O=C(O)CCc1n[nH]c2cc(Cl)c(-c3ccc(-c4ccccc4)cc3)cc12 [Example 51, 3-(5-([1,1′-biphenyl]-4-yl)-6-chloro-1H-indazol-3-yl)propanoic acid] | 312 | 71 | 355 | 22 |
| O=C(O)CCc1n[nH]c2cc(F)c(-c3ccc(-c4ccccc4O)cc3)cc12 [Example 33, 3-(6-fluoro-5-(2′-hydroxy-[1,1′-biphenyl]-4-yl)-1H-indazol-3-yl)propanoic acid] | 301 | 57 | 196 | 57 |
| NS(=O)(=O)c1ccc(-c2ccc(-c3cc4c(CCC(=O)O)n[nH]c4cc3Cl)cc2)cc1 [Example 40, 3-(6-chloro-5-(4′-sulfamoyl-[1,1′-biphenyl]-4-yl)-1H-indazol-3-yl)propanoic acid] | 92 | 85 | 306 | 68 |
| CS(=N)(=O)c1ccc(-c2ccc(-c3cc4c(CCC(=O)O)n[nH]c4cc3Cl)cc2)cc1 (centres unmarked) [Example 24, 3-(6-chloro-5-(4′-(S-methylsulfonimidoyl)-[1,1′-biphenyl]-4-yl)-1H-indazol-3-yl)propanoic acid] | 19 | 86 | 106 | 48 |
| O=C(O)CCc1n[nH]c2cc(Cl)c(-c3ccc(-c4cccc(Cl)c4O)cc3)cc12 [Example 45, 3-(6-chloro-5-(3′-chloro-2′-hydroxy-[1,1′-biphenyl]-4-yl)-1H-indazol-3-yl)propanoic acid] | 123 | 82 | 263 | 66 |
| COc1ccc(-c2ccc(-c3cc4c(CCC(=O)O)n[nH]c4cc3Cl)cc2)c(O)c1 [Example 21, 3-(6-chloro-5-(2′-hydroxy-4′-methoxy-[1,1′-biphenyl]-4-yl)-1H-indazol-3-yl)propanoic acid] | 151 | 65 | 97 | 56 |
| O=C(O)CCc1n[nH]c2cc(Cl)c(-c3ccc(-c4ccc(Cl)cc4O)cc3)cc12 [Example 64, 3-(6-chloro-5-(4′-chloro-2′-hydroxy-[1,1′-biphenyl]-4-yl)-1H-indazol-3-yl)propanoic acid] | 203 | 76 | 617 | 48 |
| NC(=O)CSc1ccc(-c2ccc(-c3cc4c(CCC(=O)O)n[nH]c4cc3Cl)cc2)cc1 [Example 17, 3-(5-(4′-((2-amino-2-oxoethyl)thio)-[1,1′-biphenyl]-4-yl)-6-chloro-1H-indazol-3-yl)propanoic acid] | 34 | 80 | 83 | 49 |
| NS(=O)(=O)c1ccc(-c2ccc(-c3cc4c(CCC(=O)O)n[nH]c4cc3Cl)cc2)c(O)c1 [Example 9, 3-(6-chloro-5-(2′-hydroxy-4′-sulfamoyl-[1,1′-biphenyl]-4-yl)-1H-indazol-3-yl)propanoic acid] | 11 | 90 | 41 | 68 |
